Assay results published in patent US20240294489A1 (Captor Therapeutics S.A., priority 2020, published 2024).
pIC50: −log10 of the molar value.

Assays:
Assay type in all cases: cell-based
MOLM-6 = assay: Cell viability, additional cell lines (CellTiter-Glo), MOLM-6; details: MOLM-6, 72 h
Method: (§1) Tumor cells are grown at 37° C. in a humidified atmosphere with 5% CO2 in RPMI 1640 medium, supplemented with 10% (v/v) fetal calf serum and 50 μg/ml gentamicin for up to 20 passages, and are passaged once or twice weekly.
(§2) Cells are harvested from exponential phase cultures, counted and plated in 96 well flat-bottom microtiter plates at a cell density depending on the cell line's growth rate (4,000-20,000 cells/well depending on the cell line's growth rate, up to 60,000 for hematological cancer cell lines) in RPMI 1640 medium supplemented with 10% (v/v) fetal calf serum and 50 μg/ml gentamicin (140 μl/well). Cultures are incubated at 37° C. and 5% CO2 in a humidified atmosphere. After 24 h, 10 μl of test compounds or control medium are added and left on the cells for another 72 h. Compounds are serially diluted in DMSO, transferred in cell culture medium, and added to the assay plates by using a Tecan Freedom EVO 200 robotic platform. The DMSO concentration is kept constant at 0.3% v/v across the assay plate. Viability of cells is quantified by the CellTiter-Glo® cell viability assay (Promega G8462). After incubation of cells, 100 μl of CellTiter-Glo® One Solution Assay reagent are added to each well. Plates are shaken for 2 minutes to induce cell lysis and incubated for 20 minutes prior to reading luminescence (LU) by using the EnVision® Xcite multilabel plate reader (Perkin Elmer). […]

Kelly cells [1] = assay: Cell viability CTG assay, Kelly; details: 72 h, 0.001-50 μM, read-out: Kelly Geomean absolute IC50 by molecule, 72 H
Summary of the method: (§3)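 Cells exposed to compound at 0.25% v/v DMSO for 72 h (37° C., 5% CO2). ATP quantified by CellTiter-Glo luminescence, normalized to DMSO control. Absolute IC50 (T/C=50%) by non-linear regression on duplicate means; geometric mean used for averages.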

Hep3B cells = assay: Cell viability CTG assay, Hep3B; details: Homo sapiens, 72 h, 0.001-50 μM, read-out: Hep3B Geomean absolute IC50 by molecule, 72 H
Summary of the method: as §3

SALL4 = molecular target: T1, SALL4 (Homo sapiens, UniProt Q96SW2+Q9UJQ4); assay: SALL4 degradation in the Kelly cell line, time course; details: Kelly cells, 0.1 μM, 3, 6, 12, 24, 48 and 72 h, FIG. 2
T1 construct: SALL4 degradation in the Kelly cell line was investigated; endogenous in cells; host or cells: Kelly
T1 sequence (Q9UJQ4 whole entry): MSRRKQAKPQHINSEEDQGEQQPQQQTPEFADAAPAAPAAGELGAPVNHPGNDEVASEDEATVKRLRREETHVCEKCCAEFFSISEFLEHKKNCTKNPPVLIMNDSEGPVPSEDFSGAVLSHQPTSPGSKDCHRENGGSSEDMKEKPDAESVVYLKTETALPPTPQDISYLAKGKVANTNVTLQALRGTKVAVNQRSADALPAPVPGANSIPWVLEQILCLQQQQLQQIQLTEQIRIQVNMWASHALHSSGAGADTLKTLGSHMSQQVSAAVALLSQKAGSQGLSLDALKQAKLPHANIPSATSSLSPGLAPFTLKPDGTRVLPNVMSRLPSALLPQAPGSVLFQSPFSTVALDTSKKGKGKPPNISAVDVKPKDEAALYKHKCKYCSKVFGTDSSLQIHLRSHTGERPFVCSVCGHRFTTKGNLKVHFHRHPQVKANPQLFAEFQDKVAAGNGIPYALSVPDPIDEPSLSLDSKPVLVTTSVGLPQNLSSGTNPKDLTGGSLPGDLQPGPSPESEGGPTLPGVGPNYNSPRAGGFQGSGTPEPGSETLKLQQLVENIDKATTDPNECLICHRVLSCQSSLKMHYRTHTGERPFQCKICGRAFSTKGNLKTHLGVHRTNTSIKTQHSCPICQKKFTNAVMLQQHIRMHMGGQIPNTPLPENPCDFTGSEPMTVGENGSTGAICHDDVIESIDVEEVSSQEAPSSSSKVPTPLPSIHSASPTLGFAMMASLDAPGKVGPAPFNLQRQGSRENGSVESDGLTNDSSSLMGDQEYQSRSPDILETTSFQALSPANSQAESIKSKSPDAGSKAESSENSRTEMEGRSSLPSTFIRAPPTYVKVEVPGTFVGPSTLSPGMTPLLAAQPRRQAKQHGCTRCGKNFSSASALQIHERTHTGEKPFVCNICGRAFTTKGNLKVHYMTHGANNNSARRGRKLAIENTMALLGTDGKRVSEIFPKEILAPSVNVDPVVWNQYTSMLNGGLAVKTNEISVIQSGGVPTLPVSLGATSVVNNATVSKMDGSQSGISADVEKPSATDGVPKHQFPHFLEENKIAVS
T1 sequence (Q96SW2 whole entry): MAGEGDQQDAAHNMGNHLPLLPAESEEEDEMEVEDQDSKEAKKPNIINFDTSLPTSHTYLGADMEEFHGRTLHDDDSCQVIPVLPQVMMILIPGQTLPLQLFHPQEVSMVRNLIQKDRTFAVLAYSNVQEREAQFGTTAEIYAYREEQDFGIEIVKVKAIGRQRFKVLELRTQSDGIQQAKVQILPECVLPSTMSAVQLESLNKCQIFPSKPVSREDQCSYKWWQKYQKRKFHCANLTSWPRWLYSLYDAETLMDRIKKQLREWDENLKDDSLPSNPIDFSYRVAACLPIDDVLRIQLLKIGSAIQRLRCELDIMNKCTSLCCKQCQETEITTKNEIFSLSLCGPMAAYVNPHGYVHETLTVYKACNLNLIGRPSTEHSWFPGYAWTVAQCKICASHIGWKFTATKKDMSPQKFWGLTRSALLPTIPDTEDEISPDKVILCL
T1 sequence (Q16531 whole entry partner): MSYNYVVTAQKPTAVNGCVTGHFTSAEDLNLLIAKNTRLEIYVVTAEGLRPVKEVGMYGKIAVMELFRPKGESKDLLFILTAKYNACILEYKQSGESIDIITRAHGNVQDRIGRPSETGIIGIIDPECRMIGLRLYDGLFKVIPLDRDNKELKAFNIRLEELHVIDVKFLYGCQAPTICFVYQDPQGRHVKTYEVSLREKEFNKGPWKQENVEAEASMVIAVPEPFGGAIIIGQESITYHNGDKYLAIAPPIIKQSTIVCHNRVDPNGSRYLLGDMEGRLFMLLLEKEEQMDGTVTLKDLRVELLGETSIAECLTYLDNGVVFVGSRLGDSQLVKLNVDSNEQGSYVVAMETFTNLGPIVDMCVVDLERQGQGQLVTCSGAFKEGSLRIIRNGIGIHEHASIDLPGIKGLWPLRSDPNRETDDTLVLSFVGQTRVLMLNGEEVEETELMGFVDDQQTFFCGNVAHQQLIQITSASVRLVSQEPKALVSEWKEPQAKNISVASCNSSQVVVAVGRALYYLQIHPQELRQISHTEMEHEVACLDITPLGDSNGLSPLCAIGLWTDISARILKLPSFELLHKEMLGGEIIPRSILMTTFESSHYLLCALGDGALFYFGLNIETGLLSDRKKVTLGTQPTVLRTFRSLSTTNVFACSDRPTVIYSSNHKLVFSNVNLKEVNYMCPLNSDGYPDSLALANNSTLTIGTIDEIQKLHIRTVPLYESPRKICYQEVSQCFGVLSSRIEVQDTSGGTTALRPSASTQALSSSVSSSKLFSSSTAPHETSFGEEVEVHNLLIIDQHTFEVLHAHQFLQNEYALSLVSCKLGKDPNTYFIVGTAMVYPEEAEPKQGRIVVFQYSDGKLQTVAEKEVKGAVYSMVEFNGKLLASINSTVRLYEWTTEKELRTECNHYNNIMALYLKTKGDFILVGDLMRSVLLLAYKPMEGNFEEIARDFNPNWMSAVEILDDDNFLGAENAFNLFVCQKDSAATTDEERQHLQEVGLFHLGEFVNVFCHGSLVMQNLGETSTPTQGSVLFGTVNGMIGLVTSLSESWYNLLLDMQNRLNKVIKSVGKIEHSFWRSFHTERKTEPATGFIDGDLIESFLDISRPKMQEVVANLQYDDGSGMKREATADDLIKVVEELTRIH
Method: Kelly cells were maintained in RPMI-1640 medium, supplemented with penicillin/streptomycin and 10% Fetal Bovine Serum (FBS). Cells were seeded on 6- or 12-well plates, and the compounds to be tested were added at the desired concentration range. Final DMSO concentration was 0.25%. After incubation (37° C., 5% CO2) for a specified period of time, cells were harvested, washed and cell lysates were prepared using RIPA lysis buffer. The amount of protein was determined via BCA assay, and the appropriate quantity was then loaded on the precast gel for the protein separation. After primary and secondary Ab staining, the membranes were washed and signals developed. The densitometry analysis was implemented to obtain the numeric values used later in the protein level evaluation process.

22Rv1 = assay: Cell viability, additional cell lines (CellTiter-Glo), 22Rv1; details: Homo sapiens, 22Rv1, 72 h
Method: as §1, §2

Kelly cells [2] = assay: Cell survival clonogenic assay, Kelly; details: 0.1-10 μM, crystal violet staining after 9-10 days
Method: To determine the ability of a single cell to form a colony (defined as a cluster of at least 50 cells), Kelly and Hep3B cells were maintained in RPM11640 (Kelly) or EMEM (Hep3B) medium, supplemented with penicillin/streptomycin and 10% FBS. The cells were counted and seeded on the 6-well plates, at the density of 1×10^3 cells per well, the compounds to be tested were added at the desired concentration range, and the cells were cultured at 37° C./5% CO2. After colony formation (9-10 days), the cells were washed and treated with 6.0% glutaraldehyde and 0.5% crystal violet mix for 30 min., followed by rinsing with water and drying at room temperature (RT).

KG-1a = assay: Cell viability, additional cell lines (CellTiter-Glo), KG-1a; details: Homo sapiens, 72 h
Method: as §1, §2

[3] = 9.5 μM, read-out: Test/Control viability at 9.5 μM

- pIC50 (MOLM-6; read-out: Absolute IC50): 6.00 to 7.00
- pIC50 (Hep3B cells): ≥ 7.00
- pIC50 (22Rv1; read-out: Absolute IC50): ≤ 4.52
SMILES: NCc1ccc2c(c1)CN(C1CCC(=O)NC1=O)C2=O (stereo not shown) [Compound 1, 3-(5-(aminomethyl)-1-oxoisoindolin-2-yl)piperidine-2,6-dione]
- viability at 9.5 µM (MOLM-6; [3]): ≤ 60%
- pIC50 (Kelly cells [1]): 6.00 to 7.00
- SALL4 degradation time course (SALL4): more rapidly and effectively than lenalidomide
- viability at 9.5 µM (22Rv1; [3]): ≤ 60%
- survival of the cells (colony formation) (Kelly cells [2]): in most cases inhibited
- viability at 9.5 µM (KG-1a; [3]): ≤ 30%
- pIC50 (KG-1a; read-out: Absolute IC50): ≥ 7.00
